# Experimental data published in patent US20230271954A1 (Gossamer Bio Services, Inc., priority 2020, published 2023).
# Key:
# DGKα = DGKα (Homo sapiens, UniProt P23743); experiment: DGKα biochemical assay (ADP-Glo); conditions: read-out: DGK α IC50
# How it was run: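 ADP-Glo kinase assay using OAG/PS (1:2) lipid substrate, sonicated, in HEPES pH 7.0 buffer with MgCl2, CaCl2, DTT, BSA, Triton X-100. Enzyme preincubated with compound 30 min at RT; substrate with ATP (DGKα: 400 μM) added, 45 min RT. Luminescence read; % inhibition vs DMSO and no-enzyme controls.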
# DGKζ = biological target: T1, DGKζ (Homo sapiens, UniProt Q13574); experiment: DGKζ biochemical assay (ADP-Glo); conditions: read-out: DGK ζ IC50
# T1 construct: purchased Carna 12-110
# T1 sequence (Q13574 1-929 isoform Q13574-4): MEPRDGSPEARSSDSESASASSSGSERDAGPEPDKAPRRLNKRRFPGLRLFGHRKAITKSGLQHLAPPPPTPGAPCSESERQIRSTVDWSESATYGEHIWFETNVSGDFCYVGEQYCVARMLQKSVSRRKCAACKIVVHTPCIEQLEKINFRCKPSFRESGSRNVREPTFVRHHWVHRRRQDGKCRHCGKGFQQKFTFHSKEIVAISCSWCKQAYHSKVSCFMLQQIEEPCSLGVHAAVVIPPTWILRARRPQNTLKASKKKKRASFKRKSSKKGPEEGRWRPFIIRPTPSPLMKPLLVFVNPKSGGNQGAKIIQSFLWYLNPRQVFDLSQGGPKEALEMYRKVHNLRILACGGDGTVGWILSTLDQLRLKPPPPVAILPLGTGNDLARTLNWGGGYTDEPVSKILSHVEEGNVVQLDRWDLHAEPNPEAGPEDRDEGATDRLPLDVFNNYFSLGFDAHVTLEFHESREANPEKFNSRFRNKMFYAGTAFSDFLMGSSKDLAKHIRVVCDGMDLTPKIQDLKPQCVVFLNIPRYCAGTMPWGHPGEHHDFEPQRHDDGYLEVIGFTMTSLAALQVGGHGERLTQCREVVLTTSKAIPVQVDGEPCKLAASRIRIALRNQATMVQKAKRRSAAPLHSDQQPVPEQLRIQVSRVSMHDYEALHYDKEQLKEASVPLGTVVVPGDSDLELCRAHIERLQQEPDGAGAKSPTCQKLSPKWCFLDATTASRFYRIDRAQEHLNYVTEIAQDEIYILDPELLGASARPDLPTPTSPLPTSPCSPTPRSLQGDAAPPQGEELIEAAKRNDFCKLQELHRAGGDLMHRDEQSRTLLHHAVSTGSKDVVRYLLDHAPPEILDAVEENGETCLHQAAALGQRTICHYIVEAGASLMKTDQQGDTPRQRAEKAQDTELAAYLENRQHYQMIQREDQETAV
# Sequence of DGKα (P23743 whole entry): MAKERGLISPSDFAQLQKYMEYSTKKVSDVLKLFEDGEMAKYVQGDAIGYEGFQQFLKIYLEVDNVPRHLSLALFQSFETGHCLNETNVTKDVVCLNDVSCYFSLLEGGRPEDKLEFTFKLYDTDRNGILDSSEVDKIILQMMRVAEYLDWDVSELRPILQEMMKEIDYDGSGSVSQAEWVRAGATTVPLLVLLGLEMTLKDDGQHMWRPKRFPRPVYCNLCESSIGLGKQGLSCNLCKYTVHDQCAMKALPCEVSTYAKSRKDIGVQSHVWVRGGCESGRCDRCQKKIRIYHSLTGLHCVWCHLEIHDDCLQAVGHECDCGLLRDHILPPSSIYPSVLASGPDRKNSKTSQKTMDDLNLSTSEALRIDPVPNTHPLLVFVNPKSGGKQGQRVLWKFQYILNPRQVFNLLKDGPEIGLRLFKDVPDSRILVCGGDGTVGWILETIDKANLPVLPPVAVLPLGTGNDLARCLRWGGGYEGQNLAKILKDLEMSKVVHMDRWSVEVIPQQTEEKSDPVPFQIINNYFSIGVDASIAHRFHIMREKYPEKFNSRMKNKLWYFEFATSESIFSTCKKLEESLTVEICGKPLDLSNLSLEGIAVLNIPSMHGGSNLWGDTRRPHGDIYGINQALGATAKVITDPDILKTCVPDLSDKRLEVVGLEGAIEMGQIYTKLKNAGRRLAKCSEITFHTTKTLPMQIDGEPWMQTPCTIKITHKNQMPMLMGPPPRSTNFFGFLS
Compound,IC50 (DGKα) [nM],IC50 (DGKζ) [nM]
"Cc1cc(N(CC2CCOC2)[C@H]2CC[C@@H](N(C)c3c(C#N)c(=O)n(C)c4ccc(C#N)nc34)CC2)ccc1F (stereo partly drawn) [Example 159, cis-8-((-4-((4-fluoro-3-methylphenyl) ((tetrahydrofuran-3-yl)methyl)amino)cyclohexyl) (methyl)amino)-5-methyl-6-oxo-5,6-dihydro-1,5-naphthyridine-2,7-dicarbonitrile]",10 to 100,10 to 100
"Cn1c(=O)c(C#N)c(N(C)[C@H]2CC[C@@H](N(CC3CCC3)c3cc4c(cc3F)OCO4)CC2)c2nc(C#N)ccc21 [Example 160, cis-8-((-4-((cyclobutylmethyl)(6-fluorobenzo[d][1,3]dioxol-5-yl)amino)cyclohexyl)(methyl)amino)-5-methyl-6-oxo-5,6-dihydro-1,5-naphthyridine-2,7-dicarbonitrile]",< 10,10 to 100
"Cn1c(=O)cc(N(C)[C@H]2CC[C@@H](N(CC3CCC3)c3cc4c(cc3F)OCO4)CC2)c2nc(C#N)ccc21 [Example 161, cis-8-((-4-((cyclobutylmethyl)(6-fluorobenzo[d][1,3]dioxol-5-yl)amino)cyclohexyl)(methyl)amino)-5-methyl-6-oxo-5,6-dihydro-1,5-naphthyridine-2-carbonitrile]",< 10,10 to 100
"Cc1ccc(N(CC2CCOC2)[C@H]2CC[C@@H](N(C)c3cc(=O)n(C)c4ccc(C#N)nc34)CC2)cc1OC(F)F (stereo partly drawn) [Example 162, cis-8-((-4-((3-(difluoromethoxy)-4-methylphenyl) ((tetrahydrofuran-3-yl)methyl)amino)cyclohexyl) (methyl)amino)-5-methyl-6-oxo-5,6-dihydro-1,5-naphthyridine-2-carbonitrile]",100 to 1000,100 to 1000
"Cn1c(=O)cc(N(C)[C@H]2CC[C@@H](N(CC3COCCO3)c3ccc(F)cc3)CC2)c2nc(C#N)ccc21 (stereo partly drawn) [Example 163, cis-8-((-4-(((1,4-dioxan-2-yl)methyl)(4-fluorophenyl)amino)cyclohexyl)(methyl)amino)-5-methyl-6-oxo-5,6-dihydro-1,5-naphthyridine-2-carbonitrile]",< 10,100 to 1000
"Cc1cc(F)ccc1N(CC1CCOC1)[C@H]1CC[C@@H](N(C)c2cc(=O)n(C)c3ccc(C#N)nc23)CC1 (stereo partly drawn) [Example 164, cis-8-((-4-((4-fluoro-2-methylphenyl) ((tetrahydrofuran-3-yl)methyl)amino)cyclohexyl) (methyl)amino)-5-methyl-6-oxo-5,6-dihydro-1,5-naphthyridine-2-carbonitrile]",100 to 1000,100 to 1000
"Cc1cc(F)ccc1N(C[C@H]1CCOC1)[C@H]1CC[C@H](N(C)c2c(C#N)c(=O)n(C)c3ccc(C#N)nc23)CC1 [Example 165, trans-8-((-4-((4-fluoro-2-methylphenyl)(((R)-tetrahydrofuran-3-yl)methyl)amino)cyclohexyl) (methyl)amino)-5-methyl-6-oxo-5,6-dihydro-1,5-naphthyridine-2,7-dicarbonitrile]",100 to 1000,100 to 1000
"Cc1cc(F)ccc1N(C[C@@H]1CCOC1)[C@H]1CC[C@H](N(C)c2c(C#N)c(=O)n(C)c3ccc(C#N)nc23)CC1 [Example 166, trans-8-((-4-((4-fluoro-2-methylphenyl)(((S)-tetrahydrofuran-3-yl)methyl)amino)cyclohexyl) (methyl)amino)-5-methyl-6-oxo-5,6-dihydro-1,5-naphthyridine-2,7-dicarbonitrile]",≥ 1000,100 to 1000
"Cc1cc(F)ccc1N(C[C@H]1CCCO1)[C@H]1CC[C@H](N(C)c2c(C#N)c(=O)n(C)c3ccc(C#N)nc23)CC1 [Example 167, trans-8-((-4-((4-fluoro-2-methylphenyl)(((R)-tetrahydrofuran-2-yl)methyl)amino)cyclohexyl) (methyl)amino)-5-methyl-6-oxo-5,6-dihydro-1,5-naphthyridine-2,7-dicarbonitrile]",100 to 1000,10 to 100
"Cc1cc(F)ccc1N(C[C@@H]1CCCO1)[C@H]1CC[C@H](N(C)c2c(C#N)c(=O)n(C)c3ccc(C#N)nc23)CC1 [Example 168, trans-8-((-4-((4-fluoro-2-methylphenyl)(((S)-tetrahydrofuran-2-yl)methyl)amino)cyclohexyl) (methyl)amino)-5-methyl-6-oxo-5,6-dihydro-1,5-naphthyridine-2,7-dicarbonitrile]",≥ 1000,100 to 1000
"Cn1c(=O)cc(N(C)[C@H]2CC[C@@H](N(CC3CCC3)c3ccc4c(c3)OCCO4)CC2)c2nc(C#N)ccc21 [Example 169, cis-8-((4-((cyclobutylmethyl)(2,3-dihydrobenzo[b] [1,4]dioxin-6-yl)amino)cyclohexyl)(methyl)amino)-5-methyl-6-oxo-5,6-dihydro-1,5-naphthyridine-2-carbonitrile]",10 to 100,10 to 100
"Cn1c(=O)c(C#N)c(N(C)[C@H]2CC[C@@H](N(CC3CCC3)c3ccc4c(c3)OCCO4)CC2)c2nc(C#N)ccc21 [Example 170, cis-8-((4-((cyclobutylmethyl)(2,3-dihydrobenzo[b] [1,4]dioxin-6-yl)amino)cyclohexyl)(methyl)amino)-5-methyl-6-oxo-5,6-dihydro-1,5-naphthyridine-2,7-dicarbonitrile]",10 to 100,10 to 100
"Cn1c(=O)c(C#N)c(N(C)[C@H]2CC[C@H](N(CC3CCC3)c3ccc4c(c3)OCCO4)CC2)c2nc(C#N)ccc21 [Example 171, trans-8-((4-((cyclobutylmethyl)(2,3-dihydrobenzo[b] [1,4]dioxin-6-yl)amino)cyclohexyl)(methyl)amino)-5-methyl-6-oxo-5,6-dihydro-1,5-naphthyridine-2,7-dicarbonitrile]",100 to 1000,100 to 1000
"Cn1c(=O)c(C#N)c(N(C)[C@H]2CC[C@H](N(CC3CCC3)c3ccc(CCN4CCOCC4)cc3)CC2)c2nc(C#N)ccc21 [Example 172, trans-8-((4-((cyclobutylmethyl)(4-(2-morpholinoethyl)phenyl)amino)cyclohexyl)(methyl)amino)-5-methyl-6-oxo-5,6-dihydro-1,5-naphthyridine-2,7-dicarbonitrile]",≥ 1000,≥ 1000
"Cc1cc(F)ccc1N(CC1COCCO1)[C@H]1CC[C@H](N(C)c2c(C#N)c(=O)n(C)c3ccc(C#N)nc23)CC1 (stereo partly drawn) [Example 173, trans-8-((4-(((1,4-dioxan-2-yl)methyl)(4-fluoro-2-methylphenyl)amino)cyclohexyl)(methyl)amino)-5-methyl-6-oxo-5,6-dihydro-1,5-naphthyridine-2,7-dicarbonitrile]",100 to 1000,100 to 1000
"Cn1c(=O)c(C#N)c(N(C)[C@H]2CC[C@H](N(CC3CC3)c3ccc(F)c(CN4CCOCC4)c3)CC2)c2nc(C#N)ccc21 [Example 174, trans-8-((-4-((cyclopropylmethyl)(4-fluoro-3-(morpholinomethyl)phenyl)amino)cyclohexyl) (methyl)amino)-5-methyl-6-oxo-5,6-dihydro-1,5-naphthyridine-2,7-dicarbonitrile]",100 to 1000,100 to 1000
"Cn1c(=O)cc(N(C)[C@H]2CC[C@@H](N(CC3CCC3)c3ccc(F)c(CN4CCOCC4)c3)CC2)c2nc(C#N)ccc21 [Example 175, cis-8-((-4-((cyclobutylmethyl)(4-fluoro-3-(morpholinomethyl)phenyl)amino)cyclohexyl) (methyl)amino)-5-methyl-6-oxo-5,6-dihydro-1,5-naphthyridine-2-carbonitrile]",100 to 1000,100 to 1000
"CC(C)CN(c1ccnn1C)[C@H]1CC[C@H](N(C)c2c(C#N)c(=O)n(C)c3ccc(C#N)nc23)CC1 [Example 176, trans-8-((-4-(isobutyl(1-methyl-1H-pyrazol-5-yl)amino)cyclohexyl)(methyl)amino)-5-methyl-6-oxo-5,6-dihydro-1,5-naphthyridine-2,7-dicarbonitrile]",≥ 1000,≥ 1000
"Cn1c(=O)c(C#N)c(N(C)[C@H]2CC[C@@H](N(CC3COCCO3)c3ccc4c(c3)OCO4)CC2)c2nc(C#N)ccc21 (stereo partly drawn) [Example 177, cis-8-((4-(((1,4-dioxan-2-yl)methyl)(benzo[d][1,3]dioxol-5-yl)amino)cyclohexyl)(methyl)amino)-5-methyl-6-oxo-5,6-dihydro-1,5-naphthyridine-2,7-dicarbonitrile]",< 10,< 10
"Cc1cc(F)ccc1N(CC1CC(F)(F)C1)[C@H]1CC[C@H](N(C)c2c(C#N)c(=O)n(C)c3ccc(C#N)nc23)CC1 [Example 178, trans-8-((-4-(((3,3-difluorocyclobutyl)methyl)(4-fluoro-2-methylphenyl)amino)cyclohexyl)(methyl)amino)-5-methyl-6-oxo-5,6-dihydro-1,5-naphthyridine-2,7-dicarbonitrile]",100 to 1000,100 to 1000
"Cn1c(=O)c(C#N)c(N(C)[C@H]2CC[C@H](N(CC3CCC3)c3ccc(F)cc3C(F)F)CC2)c2nc(C#N)ccc21 [Example 179, trans-8-((-4-((cyclobutylmethyl)(2-(difluoromethyl)-4-fluorophenyl)amino)cyclohexyl)(methyl)amino)-5-methyl-6-oxo-5,6-dihydro-1,5-naphthyridine-2,7-dicarbonitrile]",10 to 100,≥ 1000
"Cn1c(=O)c(C#N)c(N(C)[C@H]2CC[C@@H](N(CC3CCC3)c3ccc(F)cc3C(F)F)CC2)c2nc(C#N)ccc21 [Example 180, cis-8-((-4-((cyclobutylmethyl)(2-(difluoromethyl)-4-fluorophenyl)amino)cyclohexyl)(methyl)amino)-5-methyl-6-oxo-5,6-dihydro-1,5-naphthyridine-2,7-dicarbonitrile]",100 to 1000,100 to 1000
